Assay results published in patent US6379882B1, “Method for selecting compounds for treating ischemia-related cellular damage” (Elan Pharmaceuticals, Inc., priority 1998, dated 2002).
Entries after “also recorded” stand apart in the source; their conditions may differ. Like-named read-outs stand apart in the source and are kept apart here.

Key:
retinal ganglion cells [1] = conditions: literature; cited from earlier work
NMDA receptor = conditions: whole cell recordings; Chen et al. 1998; cited from earlier work
retinal ganglion cells [2] = type: cell-based, rat
[3] = test system: isolated retinas of chick embryos; conditions: LDH release and histological assessment; Chen et al. 1998; cited from earlier work
retinal ganglion cells [4] = conditions: Lagreze et al. 1998, cited from earlier work
cortical neuronal cells = conditions: cited from earlier work
[5] = test system: rat neocortical tissue slices; conditions: Evans et al. 1982; Kral et al. 1993; cited from earlier work
[6] = co-exposure to 1.0 mM, about 24 hours, Yamamoto and Tang 1998

Row | SMILES | prevention of NMDA receptor-mediated death of retinal ganglion cells in vivo (retinal ganglion cells [1]) | NMDA receptor mediated currents (NMDA receptor) | protection of oxygen/glucose-deprived RGCs from apoptotic cell death (in words) (retinal ganglion cells [2]) | protective effect on neurons under ischemic or excitotoxic conditions [3] | other results
1 | NC(CCCCCP(=O)(O)O)C(=O)O (stereo not drawn) | prevent NMDA receptor-mediated death of retinal ganglion cells in vivo | – | – | – | –
2 | Cc1ccc(Cl)c(Nc2ccccc2C(=O)O)c1Cl [meclofenamic acid] | – | inhibited NMDA receptor mediated currents | to a lesser extent; also recorded: Less efficacy | protective effect | –
3 | Cc1cccc(Nc2ccccc2C(=O)O)c1C [mefenamic acid] | – | inhibited NMDA receptor mediated currents | to a lesser extent; also recorded: Less efficacy | protective effect | –
4 | CC12CC3CC(C)(C1)CC(N)(C3)C2 [memantine] | prevent NMDA receptor-mediated death of retinal ganglion cells in vivo | – | – | – | prevention of NMDA receptor-mediated death of retinal ganglion cells (in words) (retinal ganglion cells [4]): prevent NMDA receptor-mediated death of retinal ganglion cells; increase in the number of surviving retinal ganglion cells (retinal ganglion cells [4]; administered before retinal ischemia): ~30%; increase in the number of surviving retinal ganglion cells (retinal ganglion cells [4]; administered within 30 minutes of retinal ischemia): ~20%
5 | N=C(NCCC[C@H](N)C(=O)O)N[N+](=O)[O-] [N^G-nitro-L-arginine] | – | – | – | – | increase of extracellular LDH and neuronal disintegration by potassium cyanide and NMDA (cortical neuronal cells; [6]): partially prevented
6 | O=C(O)c1cc(=O)c2ccccc2[nH]1 [kynurenic acid] | prevent NMDA receptor-mediated death of retinal ganglion cells in vivo | – | – | – | –
7 | NC(CCCP(=O)(O)O)C(=O)O (racemic) [AP-5, DL-2-amino-5-phosphonovaleric acid] | – | – | demonstrated biological activity in protecting oxygen/glucose-deprived RGCs from apoptotic cell death | – | protective effect in neocortical tissue slices [5]: protective effect
8 | O=C(O)c1ccccc1Nc1cccc(C(F)(F)F)c1 [flufenamic acid] | – | inhibited NMDA receptor mediated currents | demonstrated biological activity in protecting oxygen/glucose-deprived RGCs from apoptotic cell death | protective effect | –
9 | COc1ccc2[nH]cc(CCNC(C)=O)c2c1 [melatonin] | – | – | – | – | increase of extracellular LDH and neuronal disintegration by potassium cyanide and NMDA (cortical neuronal cells; [6]): partially prevented
10 | NC(CCCCCP(=O)(O)O)C(=O)O (racemic) [AP-7] | – | – | demonstrated biological activity in protecting oxygen/glucose-deprived RGCs from apoptotic cell death | – | increase of extracellular LDH and neuronal disintegration by potassium cyanide and NMDA (cortical neuronal cells): partially prevented
